Assay [1] has as its target T1, aldose reductase derived from human muscle cells (Homo sapiens, UniProt P15121).
T1 construct: purchased Wako Pure Chemical Industries
In words: Inhibitory activity for aldose reductase (NADPH absorbance at 340 nm, methylglyoxal substrate). It is filed as biochemical. The procedure: (1) Inhibitory activities for aldose reductase of the compounds a and b were measured by the following method. Twenty microliters of 100 mM methylglyoxal was added to 10 μl of the compound a or b (dissolved in a 50% aqueous dimethyl sulfoxide solution) as a sample, 100 μl of 0.2 M phosphate buffer (pH 6.2), 20 μl of 1 mM NADPH (phosphate buffer), 10 μl of a solution of aldose reductase derived from human muscle cells (0.1 U/ml, manufactured by Wako Pure Chemical Industries, phosphate buffer). After 30 seconds passed, change in absorbance of NADPH at 340 nm was determined for 180 seconds. A 50% aqueous dimethyl sulfoxide solution was used as a negative control in place of the sample. In addition, the absorbance was determined using distilled water as a blank of each sample in place of the methylglyoxal solution. The found values are expressed as an average of the values in two experimental values. The inhibitory ratio (%) for aldose reductase was calculated in accordance with the following formula. Inhibitory Ratio (%)=[1-[(ΔAs−ΔAsb)/(ΔAc−ΔAcb)]]×100
Here, ΔAs and ΔAc are changes in absorbance per 1 minute of a sample solution, and a negative control solution, respectively, and ΔAsb and ΔAcb are changes in absorbance per 1 minute of blank of a sample solution, and a negative control solution, respectively.

The test system of assay [2] is RAW 264.7 cells. In words: Suppressive activity for NO production induced by LPS (NO2- in medium). It counts as cell-based. The note with it: compound a 1.5, 3, 6, 12 μM; compound b 3, 6, 12, 24 μM; LPS 15 hours. The procedure: RAW 264.7 cells (ATCC TIB 71) were suspended in Dulbecco's modified Eagle's medium (manufactured by Bio Whittaker, 12-604F) containing 10% fetal bovine serum (manufactured by GIBCO), so as to have a concentration of 4×10^5 cells/ml, and the suspension was put to each well of a 48-well microtiter plate in an amount of 500 μl per well. The cells were cultured at 37° C. in the presence of 5% carbon dioxide gas. After 24 hours, the medium was exchanged with Dulbecco's modified Eagle's medium (manufactured by Bio Whittaker, 12-917F) containing 10% fetal bovine serum (manufactured by GIBCO), 2 mM L-glutamine (manufactured by Life Tech Oriental Co., Ltd., 25030-149) without containing phenol red. The compound a (dimethyl sulfoxide solution) was added to each well so as to have a concentration of 1.5, 3, 6, or 12 μM, or the compound b (dimethyl sulfoxide solution) was added to each well so as to have a concentration of 3, 6, 12, or 24 μM. […] Thereafter, the concentration of NO2^− which was produced by oxidation of NO in the medium was determined. […] Thereafter, absorbance at 540 nm was determined. The concentration of NO2 − in the medium was calculated from a calibration curve prepared from known concentrations of NaNO2. […]

The test system of assay [3] is RAW 264.7 cells. In words: Suppressive activity for IL-6 production induced by LPS (sandwich enzyme immunoassay). As to conditions: compound a 1.5, 3, 6, 12 μM; compound b 3, 6, 12, 24 μM; LPS 15 hours. It counts as cell-based. On the procedure: RAW 264.7 cells (ATCC TIB 71) were suspended in Dulbecco's modified Eagle's medium (manufactured by Bio Whittaker, 12-604F) containing 10% fetal bovine serum (manufactured by GIBCO) so as to have a concentration of 4×10^5 cells/ml, and the suspension was put to each well of a 48-well microtiter plate in an amount of 500 μl per well. The cells were cultured at 37° C. in the presence of 5% carbon dioxide gas. After 24 hours, the medium was exchanged with Ultra CHO medium (manufactured by Bio Whittaker, 12-724Q). The compound a (dimethyl sulfoxide solution) was added to each well so as to have a concentration of 1.5, 3, 6, or 12 μM, or the compound b (dimethyl sulfoxide solution) was added to each well so as to have a concentration of 3, 6, 12, or 24 μM. After additional 4 hours of culture, a 100 μg/ml aqueous lipopolysaccharide (LPS, manufactured by Sigma, L-2010) solution was added to each well in an amount of 5 μl per well, and the cells were cultured for 15 hours. Thereafter, the supernatant of the medium was collected. The content of interleukin 6 (IL-6) in the supernatant of the medium was determined with a sandwich enzyme immunoassay (manufactured by genzyme TECHNE, 4922). In addition, there were set a group without addition of the compounds a and b as a positive control, and a group without addition of LPS as a negative control. All of the determinations were carried out twice. […]

Assay [4] relates to PC12 cells (CRL-1721) derived from rat adrenal medulla pheochromocytoma, differentiated into neuron-like cells. In words: Neuronal protection from NO toxicity (SNP) in NGF-differentiated PC12 cells, MTT. It counts as cell-based. As to conditions: 10 μM compound b, 50 μM SNP, 48 hours, control without compound and SNP = 100, SNP alone 59.1. The procedure: (1) The suppressive activity for NO toxicity of the compound b was assayed in accordance with the following method. PC12 cells (CRL-1721) derived from rat adrenal medulla pheochromocytoma were suspended in DMEM medium (manufactured by Bio Whittaker) containing 10% fetal bovine serum (manufactured by Bio Whittaker) so as to have a concentration of 1×10^5 cells/ml. The suspension was put in each well of a 96-well plate in an amount of 0.1 ml per well, and the cells were cultured at 37° C. in the presence of 5% carbon dioxide gas. After the cells were cultured for 24 hours, the medium was removed and exchanged with DMEM medium containing 10 ng/ml of NGF (manufactured by TAKARA BIO Inc.) and 10% fetal bovine serum. PC12 cells were cultured for 3 days, and differentiated into neuron-like cells. After the culture, the medium was removed and exchanged with DMEM medium containing 10 μM of the compound b, 10 ng/ml of NGF, and 10% fetal bovine serum. […] Solubilized formazan was determined at a wavelength of 590 nm (control wavelength of 630 nm). […] Viability ratio (%) of cells was calculated from MTT found values of each test group by defining the MTT value of the control group (group not containing the compound b and SNP) as 100.

The test system of assay [5] is PC12 cells derived from rat adrenal medulla pheochromocytoma. In words: Suppressive activity for NO toxicity (SNP) in PC12 cells, MTT. The note with it: 10 μM compound b, 50 μM SNP, 66 hours, control without compound and SNP = 100, SNP alone 48.1. It counts as cell-based. On the procedure:
(2) The suppressive activity of the compound b for NO toxicity was assayed in accordance with the following method. PC12 cells derived from rat adrenal medulla pheochromocytoma were suspended in DMEM medium containing 10% fetal bovine serum so as to have a concentration of 1.5×10^5 cells/ml. The suspension was put to each well of a 96-well plate in an amount of 0.1 ml per well, and cultured at 37° C. in the presence of 5% carbon dioxide gas. After 24 hours of culture, the medium was removed, and exchanged with DMEM medium containing 10 μM of the compound b and 10% fetal bovine serum. After the cells were cultured for 2 hours, SNP was added thereto so as to have a concentration of 50 μM, and the cells were cultured for 66 hours. After the termination of the culture, the MTT determination was carried out in the same manner as in item (1) of Example 4, and the viability ratio (%) of cells was calculated. All of the determinations were carried out three times.

Turning to `CC12CCC(O)C(C)(C)C1Cc1c(O)ccc(C(=O)/C=C/c3ccc(O)cc3)c1O2` (single isomer, unassigned) [Compound a, (E)-1-(5,6,7,8,8a,10a-hexahydro-1,7-dihydroxy-8,8,10a-trimethyl-9H-xanthen-4-yl)-3-(4-hydroxyphenyl)-2-propen-1-one], the “Inhibitory Ratio (%) for Aldose Reductase” value in assay [1] (final concentration 2.5 μM) worked out at 33.3%; in assay [1] (final concentration 5 μM), 48.4%; in assay [1] (final concentration 10 μM), 65.7%; in assay [1] (final concentration 20 μM), 77.2%. For the same compound, in the assay on RAW 264.7 cells [2], the “Suppression of induction for NO production by LPS (NO2- concentration in medium, FIG. 7)” value was “supppressed the induction for NO production by LPS in a concentration-dependent manner”. Also, the “Inhibition of induction of IL-6 production by LPS (IL-6 in supernatant, FIG. 8)” value in the assay with RAW 264.7 cells [3] was “inhibited the induction of IL-6 production by LPS in a concentration-dependent manner”.
Turning to `CC(C)=CCCC1(C)Oc2c(C(=O)/C=C/c3ccc(O)cc3)ccc(O)c2CC1O` (single isomer, unassigned) [Compound b, (E)-1-(3,4,-dihydro-3,5-dihydroxy-2-(3-isohexeneyl)-2-methyl-2H-1-benzopyran-8-yl)-3-(4-hydroxyphenyl)-2-propene-1-one], the “Inhibitory Ratio (%) for Aldose Reductase” value in assay [1] (final concentration 2.5 μM) turned out to be 35.1%; in assay [1] (final concentration 5 μM) it was 50.6%; in assay [1] (final concentration 10 μM), 66.8%; in assay [1] (final concentration 20 μM) it was 79.1%. The “Viability Ratio (%) of Cells” value stood at 87.4% in assay [4] and 91.0% in assay [5]. For the same compound, the “Suppression of induction for NO production by LPS (NO2- concentration in medium, FIG. 7)” value with RAW 264.7 cells [2] was “supppressed the induction for NO production by LPS in a concentration-dependent manner”. Also, the “Inhibition of induction of IL-6 production by LPS (IL-6 in supernatant, FIG. 8)” value with RAW 264.7 cells [3] is listed as “inhibited the induction of IL-6 production by LPS in a concentration-dependent manner”.
